{"source": "patent US20030216361A1", "about": "“Therapeutic compositions effective against gram positive bacteria” (priority 2000, published 2003)", "test_system": "ATCC 14154, mouse virulent Staphylococcus aureus", "assay": "Mouse model of topical Gram positive (Staphylococcus aureus) infection, infected suture", "type": "in vivo", "settings": "Group 5 enrofloxacin (Baytril) 10 mg/kg SQ SID×7 days, mice", "protocol": "The model, as described in J. Gisby and J. Bryant, Antimicrobial Agents and Chemotherapy, February 2000, Vol. 44, No. 2, p 255-260, was used.\nFifty HSD:ICR male mice weighing 12-14 grams were ordered and allowed to acclimate 7 days. Mice were allocated to 5 groups of 10 animals each.\nGroup 1: infected suture placed, no treatment\nGroup 2: topical GRPB, 12.5 mg/kg BID×7 days\nGroup 3: topical GRPB, 25 mg/kg BID×7 days\nGroup 4: clean suture, no treatment\nGroup 5: enrofloxacin (Baytril) 10 mg/kg SQ SID×7 days\nATCC 14154, mouse virulent Staphylococcus aureus was grown in BHI broth overnight (12 hours) at 38 degrees C. Forty-five minutes prior to surgery, silk suture (2-0 size, 1 cm lengths w/swaged-on blunt needle) was soaked in the broth for 30 minutes, excess liquid was then removed by blotting with filter paper.\nMice were anesthetized with a ketamine (40 mg/kg), midazolam (2 mg/kg), and butorphanol (0.1 mg/kg) as a single IP injection.\nThe skin on the back of the mouse was prepared for aseptic surgery by clipping, cleansing with iodine scrub, and rinsing with alcohol. Mice were kept warm during surgery on a recirculating hot water blanket.\nThe suture was placed just under the skin on the dorsum of the animal using sterile instruments. The suture was knotted in the subcutaneous tissue to keep it in place. A half-thickness skin wound was made over the suture using the side of an 18 gauge needle as a scalpel.\nMice were allowed to recover in the home cage.\nGRPB-10-15A was reconstituted as directed, using a minimal amount of methanol followed by dilution to required volume in sterile physiologic saline.\nInjections were given using insulin syringes with 30 gauge needles. Topical administration was placed over the wound site. The mice were first treated 4 hours after surgery and were treated once or twice daily thereafter.\nAfter 7 days of treatment animals were euthanized with IP pentobarbital euthanasia solution. The suture lengths were removed and placed in 2 mls phosphate buffered saline. Serial dilutions were performed and results reported as actual counts (number of Staph colonies per suture).", "note": "Values joined by “and” are separate entries in the source; they are usually repeats but may differ in a detail not shown here. Equal values may be shown once."}
{"smiles": "CCN1CCN(c2cc3c(cc2F)c(=O)c(C(=O)O)cn3C2CC2)CC1", "note": "[Baytril, enrofloxacin, reference compound]", "values": [{"measurement": "Total colonies (number of Staph colonies per suture), individual animals", "setting": "animals 1-10, 10 mg/kg", "result": "18 colonies per suture and 30 colonies per suture and 24 colonies per suture and 100 colonies per suture and 0 colonies per suture (2×) and 74 colonies per suture and 13 colonies per suture and 740 colonies per suture and 22 colonies per suture"}, {"measurement": "Total colonies (number of Staph colonies per suture), Ave.", "setting": "average of 10 animals", "result": 102, "unit": "colonies per suture"}]}
